Measured values as given in patent publication US8852587B2 (priority 2008, dated 2014).
Like-named read-outs stand apart in the source and are kept apart here.

Molecular target: PrP^Sc (Mus musculus, UniProt P04925)
Type: binding
[1] = affinity for PrPSc pulldown compared to peptide LH3 (CDR3H)
[2] = pull-down, compared to peptide LH3
[3] = pull-down, compared to peptide LH3 (CDR3H)

Chain of PrP^Sc (P04925 23-230 limits assumed): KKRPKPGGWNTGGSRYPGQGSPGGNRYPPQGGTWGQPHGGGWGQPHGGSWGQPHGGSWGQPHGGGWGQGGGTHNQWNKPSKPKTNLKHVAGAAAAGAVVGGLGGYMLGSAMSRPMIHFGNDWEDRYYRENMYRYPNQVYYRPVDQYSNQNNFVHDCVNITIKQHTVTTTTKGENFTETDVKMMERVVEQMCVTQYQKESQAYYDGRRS

| Substance | Specificity | Specificity [3] | further results |
| --- | --- | --- | --- |
| YFCADWNWERDAMDYWG [LH3D5] | PrP^Sc | – | change of affinity for PrP^Sc: slightly decreases affinity for PrP^Sc |
| YFCARWNWERDAMAYWG [LH3A14] | – | PrP^Sc | Affinity [1]: (+); change of affinity for PrP^Sc [2]: slightly increase affinity for PrP^Sc |
| YFCARWNWARDAMDYWG [LH3A9] | PrP^Sc | – | – |
| YFCARWNWERAAMDYWG [LH3A11] | PrP^Sc | – | – |
| YFCARWNWRRDAMDYWG [LH3R9] | – | PrP^Sc | Affinity [1]: (+); change of affinity for PrP^Sc [2]: slightly increase affinity for PrP^Sc |
| YFCARWNWEDDAMDYWG [LH3D10] | PrP^Sc | – | Affinity: (+); change of affinity for PrP^Sc: slightly increase affinity for PrP^Sc |
| YFCARWNWERDAADYWG [LH3A13] | – | PrP^Sc | Affinity [1]: +; change of affinity for PrP^Sc [2]: increase affinity for PrP^Sc |
| YFCARWNWERDAMRYWG [LH3R14] | PrP^Sc | – | – |
| YFCAAWNWERDAMDYWG [LH3A5] | PrP^Sc | – | – |
| YFCARANWERDAMDYWG [LH3A6] | PrP^Sc | – | – |
| YFCARWAWERDAMDYWG [LH3A7] | – | PrP^Sc | Affinity [1]: (+); change of affinity for PrP^Sc [2]: slightly increase affinity for PrP^Sc |
| YFCARWNAERDAMDYWG [LH3A8] | PrP^Sc | – | – |
| YFCARWNWERRAMDYWG [LH3R11] | – | PrP^Sc | Affinity [1]: +; change of affinity for PrP^Sc [2]: increase affinity for PrP^Sc |
| YFAARWNWERDAMDYWG [LH3A3] | PrP^Sc | – | – |
| YFCARWNWERDAMDAWG [LH3A15] | PrP^Sc | – | – |
| YFCARWNWEADAMDYWG [LH3A10] | – | PrP^C | Specificity [2]: binds to PrP^C |
| H-YFCARWNWERDAMDYWG-OH [CDR3H] | PrP^Sc | – | Affinity: 0 |
